Measurements reported in patent US4983582A, “Preventive and therapeutic method for hypertension” (Kao Corporation, priority 1987, dated 1991).
“Also recorded” adds a separate entry of the source.

How the values were obtained:
SHR-rat [1] = test: Example 2: systolic blood pressure in the SHR, tail artery, closed method, 15 weeks administration; type: in vivo; details: for Systolic blood pressure in the SHR: average, n = 10
Description: To each group comprising 10 male SHR at the age of 9 weeks was dosed average 30 ml/day of the following aqueous solutions for 15 weeks; an aqueous solution of glucose-1-phosphate calcium (1 g/100 ml) represented by the structural formula (a), an aqueous solution of calcium lactate (0.83 g/100 ml), and an aqueous solution of hydrochlorothiazide (0.093 g/100 ml), which is one of the thiazide diuretics, while to a control group was dosed distilled water.
Systolic blood pressure was measured in a closed method in the tail artery of the subject at each time of before administration, 5 weeks of administration, and 15 weeks of administration (the measuring apparatus employed was PS-200 of Rikenkaihatsu Co.).

[2] = acute toxicity on peroral dosing to a mouse; details: in vivo, po, perorally, read-out: peroral dose at which it exhibits an acute toxicity
[3] = Japanese Patent Publication No. 46-7599 for dental caries; cited from earlier work
SHR-rat [4] = test: Example 1: systolic blood pressure of SHR-rat at tail, 3 months oral administration; type: in vivo; details: 3 ml/day per orally, average, n = 10
Description: To each group comprising 10 male SHR of approx. 300 g of the body weight was per orally dosed 3 ml/day of the following aqueous solutions for 3 months;
an aqueous solution of glucose-1-phosphate calcium (2 g/100 ml) represented by the structural formula (a), and
an aqueous solution of glucose-1-phosphate calcium containing compounds of the general formulas (a) and (b) in the weight ratio of 9:1,
while to a control group was given distilled water.
The systolic blood pressure was measured at the tail of each subject, every one, two and three months of the administration period.

[5] = 5 weeks after, average 30 ml/day, glucose-1-phosphate calcium 1 g/100 ml, calcium lactate 0.83 g/100 ml, hydrochlorothiazide 0.093 g/100 ml, control 203
[6] = 15 weeks after, average 30 ml/day, glucose-1-phosphate calcium 1 g/100 ml, calcium lactate 0.83 g/100 ml, hydrochlorothiazide 0.093 g/100 ml, control 211
[7] = before administration, control 197

| Structure (SMILES) | Systolic blood pressure in the SHR (SHR-rat [1]; [5]) | Systolic blood pressure in the SHR (SHR-rat [1]; [6]) | Systolic blood pressure in the SHR (SHR-rat [1]; [7]) | reduction of the systolic blood pressure of SHR-rat compared with hydrochlorothiazide (SHR-rat [1]; SHR-rat, Table 2) | LD50 [2] | physiological effects already reported [3] | Systolic blood pressure of SHR-rat at tail (SHR-rat [4]; 1 month, control 150) | Systolic blood pressure of SHR-rat at tail (SHR-rat [4]; 2 months, control 187) | Systolic blood pressure of SHR-rat at tail (SHR-rat [4]; 3 months, control 215) |
| --- | --- | --- | --- | --- | --- | --- | --- | --- | --- |
| NS(=O)(=O)c1cc2c(cc1Cl)NCNS2(=O)=O [Hydrochlorothiazide, hydrochlorothiazide] | 175 | 188 | 200 |  |  |  |  |  |  |
| O=P(O)(O)OC1O[C@H](CO)[C@@H](O)[C@H](O)[C@H]1O (stereo partly drawn) [glucose-1-phosphate calcium] |  |  |  | substantially in the same extent as hydrochlorothiazide | ≥ 15000 mg/kg | effect of inhibiting dental caries; also recorded: cartilage-calcification promotion effect; also recorded: fatigue-recuperation effect |  |  |  |
| O=P(O)(O)OC1O[C@H](CO)[C@@H](O)[C@H](O)[C@H]1O (stereo partly drawn) [Glucose-1-phosphate calcium (a), glucose-1-phosphate calcium] | 175 | 185 | 199 |  |  |  | 148 | 153 | 155 |
| CC(O)C(=O)O (stereo not drawn) [Calcium lactate, calcium lactate] | 190 | 204 | 198 |  |  |  |  |  |  |
